Assay results published in patent US6703409B2, “2′-Halo-3′,5′-dialkoxyphen-1′-yl-imino-2-imidazolidine and the use thereof as a drug” (Boehringer Ingelheim Pharma GmbH & Co KG, priority 2002, dated 2004).

Key:
CYP2D6 = CYP2D6 (Homo sapiens, UniProt P10635); experiment: Metabolism by the enzyme CYP2D6; format: in vitro ADME; conditions: CYP2D6, after 30 minutes
Protocol: To determine the metabolism the enzyme CYP2D6 was reacted with 2′-Chloro-3′,5′-dimethoxyphen-1′-yl-imino-2-imidazolidine. After 30 minutes 2.4% of the substance had been broken down by the enzyme.

human urethra = experiment: Maximum contraction in the human urethra compared with noradrenaline; conditions: as percentage of contraction compared with noradrenaline
Text: (§1) The maximum contraction in the isolated dog femoral artery and the human urethra are given as percentages of contraction compared with noradrenaline.

[1] = test system: isolated dog femoral artery; experiment: Maximum contraction in the isolated dog femoral artery compared with noradrenaline; conditions: as percentage of contraction compared with noradrenaline
Text: as §1

Chain of CYP2D6 (P10635 whole entry, species assumed): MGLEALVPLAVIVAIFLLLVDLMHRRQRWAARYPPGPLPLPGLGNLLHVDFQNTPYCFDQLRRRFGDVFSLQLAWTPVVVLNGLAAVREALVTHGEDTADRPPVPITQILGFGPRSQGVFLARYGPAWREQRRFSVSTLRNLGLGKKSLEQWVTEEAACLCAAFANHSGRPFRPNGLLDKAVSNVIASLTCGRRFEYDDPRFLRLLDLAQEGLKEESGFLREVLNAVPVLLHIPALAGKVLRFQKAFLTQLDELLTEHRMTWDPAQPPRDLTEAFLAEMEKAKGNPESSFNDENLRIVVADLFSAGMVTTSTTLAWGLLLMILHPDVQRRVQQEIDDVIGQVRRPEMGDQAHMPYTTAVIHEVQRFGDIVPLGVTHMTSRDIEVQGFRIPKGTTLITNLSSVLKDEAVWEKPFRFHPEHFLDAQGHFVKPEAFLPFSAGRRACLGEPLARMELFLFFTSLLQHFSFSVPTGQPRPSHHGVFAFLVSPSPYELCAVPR

**Q.** COc1cc(N=C2NCCN2)c(Cl)c(OC)c1 [2′-chloro-3′,5′-dimethoxyphen-1′-yl-imino-2-imidazolidine] was tested. Which “substance broken down by the enzyme” value (CYP2D6) did it give?
**A.** 2.4%

**Q.** And the “activity on human urethra” value (human urethra)?
**A.** 66.2%

**Q.** And the “activity in the dog” value [1]?
**A.** 65%
